Data as given in patent publication US7598258B2, “Quinoline derivatives and quinazoline derivatives inhibiting autophosphorylation of macrophage colony stimulating factor receptor” (Kirin Beer Kabushiki Kaisha, priority 2002, dated 2009).

Columns and labels:
BAC-1.2F5 cell line = assay: Inhibition of M-CSF-dependent cell growth of macrophage-like cell line BAC-1.2F5 (MTS); assay type: cell-based, mouse; conditions: 72 hr, M-CSF 50 ng/ml, FIG. 1
Protocol: Macrophage-like cell line BAC-1.2F5 which expresses c-fms as a M-CSF receptor on cell membranes (CLAUDIA M. et al., J. Cell. Physiol., 130, 420-427 (1987), “Isolation and Characterization of a Cloned Growth Factor Dependent Macrophage Cell Line, BAC1.2F5”) was cultured at 37° C. in a DMEM medium containing L-cell supernatant and 10% fetal calf serum (purchased from GIBCO BRL) in a 5% CO2 incubator until about 50 to 70% confluent. The harvested cells were inoculated into wells, each containing a 10% fetal calf serum-containing DMEM medium with human recombinant M-CSF being added thereto to a final concentration of 50 ng/ml, in a 96-well flat-bottom plate at a density of 5.0×10^3 per well, and cultured at 37° C. for 24 hr. A test compound dissolved in dimethyl sulfoxide was then added to each well to a target concentration, and cells were incubated at 37° C. in a 5% CO2 incubator for 72 hr. Thereafter, 20 μl of an MTS reagent (purchased from Promega) was added to each well, followed by incubation at 37° C. in a 5% CO2 incubator for 2 hr. Thereafter, absorbance at 490 nm was measured with a microplate reader. The cell growth rate with the addition of the test compound was determined by presuming the absorbance without the addition of the test compound and with the addition of M-CSF to be 100% cell growth and the absorbance without the addition of the test compound and M-CSF to be 0% cell growth. The concentration of the test compound was varied on several levels, and the cell growth rate in each case was calculated.

[1] = tested on: bone metastasis of A375 human melanoma cells; assay: Nude mouse bone metastasis model using human melanoma cells (A375); assay type: in vivo, nude mice; conditions: oral 40 mg/kg/day (20 mg twice a day), 28 days, p<0.01 vs. vehicle control, FIG. 3
Protocol: From the next day of the transplantation, for 28 days twice a day, the test compound was orally administered to the treatment group at 40 mg/kg/day, and the medium was orally administered to the control group. On 21 and 28 days after the transplantation, the mice were radiographed. For the images thus obtained, the bone resorption pore area in femora and fibiae attributable to bone metastasis of melanoma in each individual were calculated with an image analysis software (Image Gauge, FUJI FILM) to determine the average value for each group. The drug efficacy was evaluated by comparing the area of the test compound administered group with the area of the control group.

[2] = tested on: osteoclast differentiation; assay: Osteoclast differentiation-inducing test by cocultivation of mouse bone marrow cells and osteoblast-like cell line KS483 (TRAP activity); assay type: cell-based; conditions: 6 days coculture with 1,25(OH)2VD3, FIG. 2
Protocol: Mouse osteoblast-like cell line KS483 ([…] T. et al., Bone, 19, 429-436 (1996), “Subcloning of Three Osteoblastic Cell with Distinct Differentiation Phenotypes from the Mouse Osteoblastic Cell line KS-4”) was cultured in an α-MEM medium containing a 10% fetal calf serum (purchased from GIBCO BRL) until about 90% confluent. The cells were seeded into wells, each containing the same medium containing a 10% fetal calf serum, in a 48 well flat-bottom plate at a density of 2.0×10^3 per well. […] At the same time, the TRAP activity was evaluated by the measurement of enzyme activity using p-nitrophenylphosphate (SIGMA104 phosphatase substrate; SIGMA; hereinafter referred to as “PNP”). […] After stirring, 50 μl of 0.5 N NaOH was further added, and 100 μl of the reaction solution in each well was dispensed in a 96 well flat-bottom plate, and absorbance at 405 nm was then measured with a microplate reader. For each well, TRAP activity was measured by presuming the absorbance in the case of culture without the addition of the test compound and with the addition of only KS483 and mouse bone marrow cells in the presence of 1,25(OH)2VD3 to 100% TRAP activity and the absorbance without the addition of the test compound and the mouse bone marrow cells to 0% TRAP activity. […]

Structure (SMILES): COc1cc(Oc2ccnc3cc(OC)c(OC)cc23)ccc1NC(=O)N[C@@H](C)c1ccc(F)cc1 [Example 17, N-{4-[(6,7-Dimethoxy-4-quinolyl)oxy]-2-methoxyphenyl}-N′-[(1S)-1-(4-fluorophenyl)ethyl]urea]
- inhibition of M-CSF-dependent cell growth of BAC-1.2F5 (BAC-1.2F5 cell line): concentration-dependent inhibition

Structure (SMILES): COc1cc(Oc2ccnc3cc(OC)c(OC)cc23)ccc1NC(=O)N[C@H](C)c1ccc(F)cc1 [Example 18, N-{4-[(6,7-Dimethoxy-4-quinolyl)oxy]-2-methoxyphenyl}-N′-[(1R)-1-(4-fluorophenyl)ethyl]urea]
- inhibition of M-CSF-dependent cell growth of BAC-1.2F5 (BAC-1.2F5 cell line): concentration-dependent inhibition

Structure (SMILES): COc1cc(Oc2ccnc3cc(OC)c(OC)cc23)ccc1NC(=O)NC(C)c1nccs1 (centres unmarked) [Example 74, N-{4-[(6,7-Dimethoxy-4-quinolyl)oxy]-2-methoxyphenyl}-N′-[1-(1,3-thiazol-2-yl)ethyl]urea]
- inhibition of expansion of bone resorption area involved in bone metastasis of melanoma [1]: inhibiting the expansion of bone resorption area
- inhibition of M-CSF-dependent cell growth of BAC-1.2F5 (BAC-1.2F5 cell line): concentration-dependent inhibition
- inhibition of osteoclast differentiation (TRAP activity) [2]: concentration-dependent inhibition
